Laboratory results: patent US20210221848A1, “POLYMYXIN DERIVATIVES AND THEIR USE IN COMBINATION THERAPY TOGETHER WITH DIFFERENT ANTIBIOTICS” (priority 2014, published 2021)
Like-named read-outs stand apart in the source and are kept apart here.

Assays:
[1] = tested on: A. baumannii
[2] = tested on: E. coli
[3] = tested on: K. pneumoniae strains with elevated MICs to Polymyxin B; experiment: MIC against strains with elevated MICs to Polymyxin B; type: cell-based, Klebsiella pneumoniae; settings: Table 6D; for MIC K. pneumoniae 062: strain 062, elevated MIC to Polymyxin B; for MIC K. pneumoniae 063: strain 063, elevated MIC to Polymyxin B; for MIC K. pneumoniae 064: strain 064, elevated MIC to Polymyxin B; for MIC K. pneumoniae 655: strain 655, elevated MIC to Polymyxin B
Description: (§1) The inoculum was prepared by making a direct suspension of isolated colonies (selected from an 18-24 hour Mueller-Hinton agar plate) adjusted to the 0.5 McFarland standard. […] The assays were performed in duplicate. […] In cases where the duplicate values varied by less than 2-fold, the lower of the two values is reported. If a variation of greater than 2-fold was observed, the assay was considered non-valid. Several of the compounds were subjected to multiple tests, and where this is the case, the MIC reflects the modal value obtained.
(§2) The Further Synthesis Examples were tested against a range of Gram negative bacteria, and tested for HK-2 cell toxicity. All the worked examples, including the Synthesis and Further Synthesis Examples, were also tested against a range of Gram negative bacteria that are resistant to Polymyxin B (i.e. those strains where Polymyxin B has an elevated MIC value).

[4] = tested on: K. pneumoniae
[5] = tested on: E. coli strains with elevated MICs to Polymyxin B; experiment: MIC against strains with elevated MICs to Polymyxin B; type: cell-based, Escherichia coli; settings: Table 6D; for MIC E. coli 058: strain 058, elevated MIC to Polymyxin B; for MIC E. coli 059: strain 059, elevated MIC to Polymyxin B; for MIC E. coli 060: strain 060, elevated MIC to Polymyxin B; for MIC E. coli 061: strain 061, elevated MIC to Polymyxin B
Description: as §1, §2

[6] = tested on: P. aeruginosa strains with elevated MICs to Polymyxin B; experiment: as above; type: cell-based, Pseudomonas aeruginosa; settings: Table 6D; for MIC P. aeruginosa 065: strain 065, elevated MIC to Polymyxin B; for MIC P. aeruginosa 066: strain 066, elevated MIC to Polymyxin B; for MIC P. aeruginosa 067: strain 067, elevated MIC to Polymyxin B
Description: as §1, §2

[7] = tested on: A. baumanii strains with elevated MICs to Polymyxin B; experiment: as above; type: cell-based, Acinetobacter baumannii; settings: Table 6D; for MIC A. baumannii 053: strain 053, elevated MIC to Polymyxin B; for MIC A. baumannii 056: strain 056, elevated MIC to Polymyxin B; for MIC A. baumannii 068: strain 068, elevated MIC to Polymyxin B; for MIC A. baumannii 070: strain 070, elevated MIC to Polymyxin B
Description: as §1, §2

[8] = tested on: P. aeruginosa
[9] = absence of a second agent, Table 6B

Substance	MIC, A. baumannii ATCC BAA-747 [1, 9] [micrograms/mL]	MIC, A. baumannii NCTC 13424 [1, 9] [micrograms/mL]	MIC, E. coli ATCC 25922 [2, 9] [micrograms/mL]	MIC, E. coli NCTC 13441 [2, 9] [micrograms/mL]	MIC K. pneumoniae 062 [3] [micrograms/mL]	MIC K. pneumoniae 063 [3] [micrograms/mL]	MIC K. pneumoniae 064 [3] [micrograms/mL]	MIC K. pneumoniae 655 [3] [micrograms/mL]	MIC, K. pneumoniae ATCC BAA-2146 [4, 9] [micrograms/mL]	MIC E. coli 059 [5] [micrograms/mL]	MIC E. coli 060 [5] [micrograms/mL]	MIC E. coli 061 [5] [micrograms/mL]	MIC P. aeruginosa 066 [6] [micrograms/mL]	MIC P. aeruginosa 067 [6] [micrograms/mL]	MIC A. baumannii 053 [7] [micrograms/mL]	MIC A. baumannii 056 [7] [micrograms/mL]	MIC A. baumannii 068 [7] [micrograms/mL]	MIC A. baumannii 070 [7] [micrograms/mL]	MIC, P. aeruginosa ATCC 27853 [8, 9] [micrograms/mL]	MIC, P. aeruginosa CCUG 59347 [8, 9] [micrograms/mL]	also measured
4-octylpiperidine-3- carbonyl polymyxin B nonapeptide [Example D35]	2	1	1	1	1	2	1	4	2	0.5	2	4	1	4	32	8	1	1	1	1	MIC, K. pneumoniae ATCC 4352 [4, 9]: 2 micrograms/mL; MIC E. coli 058 [5]: 1 micrograms/mL; MIC P. aeruginosa 065 [6]: 0.25 micrograms/mL
trans-4- octylpyrrolidine- 3-carbonyl L-Thr- L-Dap-polymyxin B heptapeptide [Example D89]	–	–	–	–	8	4	1	8	–	1	0.5	2	1	16	8	4	0.5	0.5	–	–	MIC, A. baumannii ATCC BAA-747 ([1]; sole activity, Table 6C): 0.5 micrograms/mL; MIC, A. baumannii NCTC 13424 ([1]; sole activity, Table 6C): 0.5 micrograms/mL; MIC, E. coli ATCC 25922 ([2]; sole activity, Table 6C): 0.5 micrograms/mL; MIC, E. coli NCTC 13441 ([2]; sole activity, Table 6C): 0.125 micrograms/mL; MIC, K. pneumoniae ATCC BAA-2146 ([4]; sole activity, Table 6C): 0.5 micrograms/mL; MIC E. coli 058 [5]: 1 micrograms/mL; MIC P. aeruginosa 065 [6]: 0.5 micrograms/mL; MIC, P. aeruginosa ATCC 27853 ([8]; sole activity, Table 6C): 0.5 micrograms/mL; MIC, P. aeruginosa CCUG 59347 ([8]; sole activity, Table 6C): 1 micrograms/mL
3-aminomethyl- undecanoyl polymyxin B nonapeptide [Example D32]	2	1	1	1	8	32	2	32	–	1	2	8	4	32	32	8	4	8	0.5	1	MIC, K. pneumoniae ATCC 4352 [4, 9]: 1 micrograms/mL
(trans-5- octylpiperidine)-3- carbonyl polymyxin B nonapeptide [Example D23]	0.25	0.25	–	1	4	4	1	4	1	0.25	1	1	1	8	2	0.5	1	1	0.5	0.5	MIC E. coli 058 [5]: 0.5 micrograms/mL; MIC P. aeruginosa 065 [6]: 0.5 micrograms/mL
cis-5-cyclohexyl- piperidine-3- carbonyl L-Thr-L- Dap-polymyxin B heptapeptide [Example D85]	–	–	–	–	–	64	16	32	–	16	4	16	16	>128	64	4	8	8	–	–	MIC, A. baumannii ATCC BAA-747 ([1]; sole activity, Table 6C): 0.015 micrograms/mL; MIC, A. baumannii NCTC 13424 ([1]; sole activity, Table 6C): 0.06 micrograms/mL; MIC, E. coli ATCC 25922 ([2]; sole activity, Table 6C): 0.06 micrograms/mL; MIC, E. coli NCTC 13441 ([2]; sole activity, Table 6C): 0.125 micrograms/mL; MIC, K. pneumoniae ATCC 4352 ([4]; sole activity, Table 6C): 0.06 micrograms/mL; MIC E. coli 058 [5]: 2 micrograms/mL; MIC P. aeruginosa 065 [6]: 4 micrograms/mL; MIC, P. aeruginosa ATCC 27853 ([8]; sole activity, Table 6C): 0.125 micrograms/mL; MIC, P. aeruginosa CCUG 59347 ([8]; sole activity, Table 6C): 0.25 micrograms/mL
(trans-5- octylpiperidine)-3- carbonyl polymyxin B nonapeptide [Example D22]	>8	>8	4	4	>64	>64	>64	>256	>8	8	16	64	>64	>64	>64	>64	4	4	2	1	–
(cis-5-octylpiperidine)- 3-carbonyl polymyxin B nonapeptide [Example D20]	>8	>8	4	4	>64	>64	>64	>64	>8	4	16	32	64	>64	>64	>64	32	64	0.5	1	MIC, K. pneumoniae ATCC 4352 [4, 9]: 8 micrograms/mL
